Assay results from publication PMC6769468, “Endogenous Neuropeptide Nocistatin Is a Direct Agonist of Acid-Sensing Ion Channels (ASIC1, ASIC2 and ASIC3)” (Biomolecules, 2019).
Ends that are not written are not given here.

What was measured:
rat ASIC2a = target: T1, rat ASIC2a (Rattus norvegicus, UniProt Q62962); assay: Whole-cell current activation, rat ASIC2a in X. laevis oocytes; type: cell-based
T1 construct: expressed in transfected cells; host or cells: Xenopus laevis oocytes (injected)
T1 sequence (Q62962 1-512): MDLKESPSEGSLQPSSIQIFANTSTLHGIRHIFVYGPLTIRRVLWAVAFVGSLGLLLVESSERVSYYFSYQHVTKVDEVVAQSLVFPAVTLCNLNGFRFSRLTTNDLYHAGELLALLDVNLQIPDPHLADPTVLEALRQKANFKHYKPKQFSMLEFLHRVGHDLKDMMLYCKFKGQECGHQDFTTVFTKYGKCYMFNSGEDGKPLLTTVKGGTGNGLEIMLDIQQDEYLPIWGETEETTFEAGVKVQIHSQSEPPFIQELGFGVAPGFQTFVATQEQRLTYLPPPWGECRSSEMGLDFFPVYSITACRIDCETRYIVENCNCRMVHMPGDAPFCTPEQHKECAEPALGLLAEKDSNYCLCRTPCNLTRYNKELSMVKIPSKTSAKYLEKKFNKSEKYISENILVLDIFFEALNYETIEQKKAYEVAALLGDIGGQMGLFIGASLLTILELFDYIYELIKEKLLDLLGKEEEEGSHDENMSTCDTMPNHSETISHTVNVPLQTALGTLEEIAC
Method: Oocytes expressed rASIC1a, rASIC1b, rASIC2a, and rASIC3 homomeric channels were prepared as described. Injected oocytes were kept for two–three days at 19 °C and then for up to seven days at 15 °C in ND-96 medium supplemented with gentamycin (50 μg·mL^−1) and containing (in mM): 96 NaCl, 2 KCl, 1.8 CaCl2, 1 MgCl2, and 10 HEPES titrated to pH 7.4 with NaOH. Electrophysiological recordings were performed using the GeneClamp500 amplifier (Axon Instruments, Inverurie, UK) at a holding potential of -50 mV. The data were filtered at 20 Hz and digitized at 100 Hz using the L780 AD converter (L-Card, Moscow, Russia). Microelectrodes were filled with 3 M KCl. The external bath solution was ND-96 with pH adjusted to 7.4/7.8 (10 mM HEPES) /8.5 (10 mM Tris). Nocistatin containing solutions were freshly prepared and buffered each experimental day in ND-96 bath solution (pH 7.4/7.8/8.5). Proton-activated currents through ASIC channels were elicited by application of ND-96, in which 10 mM of HEPES was substituted with 10 mM MES at pH 5.5/ 10 mM acetic acid at pH 4.5. The whole-cell recording was performed if a response to the control pH stimulus was stable in at least two replicates. Nocistatin-activated currents were elicited by application of nocistatin containing solutions with various concentrations of the peptide.
Extracellular solutions were applied using a computer-controlled valve system with a flow rate of 1 mL/min. The oocyte chamber volume was 80 µL. The validity of the application system for studying ASIC channels expressed in oocytes was confirmed in experiments by application of a Cl-free solution (containing (in mM): 130 NMDG, 1 MgGluc2, 2 KGluc, 5 HEPES) (pH 7.4). […]
All data are presented as mean ± SEM. The significance of normalized data differences was determined with a non-parametric Kruskal-Wallis ANOVA test with the significance level * p < 0.05 and ** p < 0.01; ns, non-significant.

rat ASIC1a = target: T2, rat ASIC1a (Rattus norvegicus, UniProt P55926); assay: ASIC1a steady-state desensitization (SSD) by rNS preconditioning; type: cell-based; conditions: preconditioning with 0.04 to 0.1 mM rNS, then 1 mM rNS stimulus; n = 4
T2 construct: expressed in transfected cells; host or cells: Xenopus laevis oocytes (injected)
T2 sequence (P55926 1-526): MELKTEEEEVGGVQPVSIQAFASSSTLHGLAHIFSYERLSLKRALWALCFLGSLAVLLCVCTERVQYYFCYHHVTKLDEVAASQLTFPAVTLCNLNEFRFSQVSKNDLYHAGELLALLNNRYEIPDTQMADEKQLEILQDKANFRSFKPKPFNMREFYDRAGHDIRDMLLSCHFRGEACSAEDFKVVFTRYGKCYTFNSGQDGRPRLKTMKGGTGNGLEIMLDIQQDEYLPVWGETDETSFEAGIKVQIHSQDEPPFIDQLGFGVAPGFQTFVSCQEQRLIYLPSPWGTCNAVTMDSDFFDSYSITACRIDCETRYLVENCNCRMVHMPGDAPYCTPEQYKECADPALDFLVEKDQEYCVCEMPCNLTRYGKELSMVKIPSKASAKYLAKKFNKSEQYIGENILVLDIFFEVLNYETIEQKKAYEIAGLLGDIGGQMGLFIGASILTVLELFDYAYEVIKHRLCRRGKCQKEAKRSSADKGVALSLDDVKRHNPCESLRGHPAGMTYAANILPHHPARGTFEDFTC
Method: Oocytes expressed rASIC1a, rASIC1b, rASIC2a, and rASIC3 homomeric channels were prepared as described. Injected oocytes were kept for two–three days at 19 °C and then for up to seven days at 15 °C in ND-96 medium supplemented with gentamycin (50 μg·mL^−1) and containing (in mM): 96 NaCl, 2 KCl, 1.8 CaCl2, 1 MgCl2, and 10 HEPES titrated to pH 7.4 with NaOH. Electrophysiological recordings were performed using the GeneClamp500 amplifier (Axon Instruments, Inverurie, UK) at a holding potential of -50 mV. The data were filtered at 20 Hz and digitized at 100 Hz using the L780 AD converter (L-Card, Moscow, Russia). Microelectrodes were filled with 3 M KCl. […]
Figure 2 Effects of nocistatin on rat ASIC1a channels. […] Calculated parameters of EC50 for non-discriminated sites, or EC501 for “cooperative” sites and EC502 for single site, are shown as a result of experimental data mathematical processing. The peak current amplitude is normalized to the maximum amplitude (Imax) calculated for each oocyte by individual fitting. […] Two independent dose-response curves were measured for the 1st (blue line) and the 2nd (green line) peak components of the current. Calculated parameters of IC50 are shown as a result of experimental data mathematical processing by F3(x) logistic equation (see Materials and Methods for detailed description). […]

MPRVRSVVQARDAEPEADAEPVADEADEVEQKQLQ [rNS]
tmax less than for acidification by (rat ASIC2a; 1 mM rNS vs acidification, faster): ~ 37% | Maximal amplitude of peptide activation versus response to standard pH drop (rat ASIC2a; 1 mM rNS vs pH drop 7.4 to 5.5): eight times higher | τdes (desensitization time constant) (rat ASIC2a; 1 mM rNS, conditioning pH 7.4, mean ± S.E. from 4–7 measurements): 2.22 ± 0.16 s | Steady-state desensitization (SSD) (rat ASIC1a): does not -induce SSD
